Calls of active or inactive are those of the source. No rule for the calls is given here.

The assay has as its system human hepatocytes, lipid droplet formation imaging. Put plainly: blockers of lipid droplet accumulation in hepatocytes – imaging, human hepatocytes, SAR follow-up (AID 504422).
What is called IC50 is the concentration at which inhibition is half-maximal. With `CCOc1ccc(CCNC(=O)Cn2ncn3nc(-c4ccc(OC)cc4)cc3c2=O)cc1OCC`, the IC50 was > 10 µM (inactive).
As to `CCOc1ccc(CCNC(=O)CSc2cc(=O)n(C)c3ccccc23)cc1OC`, the IC50 was > 10 µM (inactive).
With `CCOc1ccc(CCNC(=O)COC(=O)c2ccc(OC)c(OC)c2OC)cc1OCC` the figure was > 10 µM (inactive); with `CCOc1ccc(CCNC(=O)c2cc3sccc3[nH]2)cc1OCC`, > 10 µM (inactive).
In the case of `CCOc1ccc(CCNC(=O)C2CC=CCC2C(=O)OC(C)C)cc1OCC` (stereo not drawn), the IC50 was > 10 µM (inactive).
As to `CCOc1ccc(CCNC(=O)c2cc3sc(Cl)cc3n2C)cc1OCC`, the IC50 is > 10 µM (inactive).
As to `Cn1c(=O)cc(SCC(=O)NCc2ccc3c(c2)OCO3)c2ccccc21`, the IC50 was > 10 µM (inactive).
The value for `CCOc1cc(CCNC(=O)c2cc3sccc3[nH]2)ccc1OC` was > 10 µM (inactive).
Turning to `CCn1c(C(=O)NCCc2ccc(OC)c(OC)c2)cc2sc(Cl)cc21`, the IC50 was > 10 µM (inactive).
As for `CCOc1cc(CCNC(=O)CSc2cc(=O)n(C)c3ccccc23)ccc1OC`, the IC50 is > 10 µM (inactive).
On to `COc1ccc(CCNC(=O)c2cc(-c3ccccc3)c(N3CCOCC3)s2)c(OC)c1OC`, for which the IC50 is > 10 µM (inactive).
As to `CCOc1ccc(CCNC(=O)CSc2cc(=O)n(C)c3cc(Cl)ccc23)cc1OCC`, the IC50 was > 10 µM (inactive).
Take `CCOc1cc(CCNC(=O)c2cc3ccsc3n2C)ccc1OC`: the IC50 was > 10 µM (inactive).
The value for `CCn1c(C(=O)Nc2ccc(OC)c(OC)c2)cc2ccsc21` was > 10 µM (inactive).
The value for `Cn1c(=O)cc(SCC(=O)Nc2ccc3c(c2)OCO3)c2ccccc21` was > 10 µM (inactive); that for `COc1ccc(NC(=O)c2cc3ccsc3n2C)cc1OC` was > 10 µM (inactive).
As to `CCOc1ccc(CCNC(=O)CCc2nnc3ccc(N4CCCCC4)nn23)cc1OCC`, the IC50 is > 10 µM (inactive).
Turning to `CCOc1ccc(CCNC(=O)Cn2cccc2C(=O)c2ccccc2C)cc1OCC`, the IC50 was > 10 µM (inactive).
With `CCOc1ccc(CCNC(=O)c2nnc(Cc3ccc(F)cc3)o2)cc1OCC` the figure was > 10 µM (inactive).
In the case of `COc1cc(CNC(=O)c2cc3ccsc3n2C)cc(OC)c1OC`, the IC50 was > 10 µM (inactive).
`O=C(NCCc1ccc2c(c1)OCO2)c1ccc(N2CCOCC2)s1`: the IC50 was > 10 µM (inactive).
With `COc1ccc(CCNC(=O)c2cc3ccccc3n2C)cc1OC` the figure was > 10 µM (inactive).
With `CCn1c(C(=O)NCc2ccc3c(c2)OCO3)cc2sccc21` the figure was > 10 µM (inactive); with `CCOc1ccc(CCNC(=O)c2cc3ccccc3n2C)cc1OC`, > 10 µM (inactive).
For `CCOc1ccc(CCNC(=O)CCC(=O)N2CCOc3ccc(C)cc32)cc1OCC`, the IC50 is > 10 µM (inactive).
The value for `CCOc1ccc(CCNC(=O)Cn2nc(C)c3c(C)n(-c4ccccc4)nc3c2=O)cc1OCC` was > 10 µM (inactive); that for `CCOc1ccc(CCNC(=O)CCc2nc(-c3ccc(OC)cc3)no2)cc1OCC` was > 10 µM (inactive).
In the case of `Cn1c(C(=O)NCCc2ccc3c(c2)OCO3)cc2ccccc21`, the IC50 is > 10 µM (inactive).
The value for `CCOc1ccc(CCNC(=O)c2cc3sccc3n2CC)cc1OCC` was > 10 µM (inactive).
Consider `CCOc1ccc(CCNC(=O)CN2C(=O)c3cccnc3Oc3ccc(C)cc32)cc1OCC`, for which the IC50 is > 10 µM (inactive).
With `CCOc1ccc(CCNC(=O)CN2CCN(Cc3ccccc3C)C2=O)cc1OCC`, the IC50 was > 10 µM (inactive).
As for `CCn1c(C(=O)NCCc2ccc(OC)c(OC)c2)cc2ccsc21`, the IC50 was > 10 µM (inactive).
For `CCOc1ccc(CCNC(=O)c2cc3sccc3n2C)cc1OCC`, the IC50 was > 10 µM (inactive).
With `CCOc1ccc(CCNC(=O)CSc2cc(=O)n(CC)c3ccccc23)cc1OCC` the figure was > 10 µM (inactive); with `CCn1c(C(=O)Nc2ccc3c(c2)OCO3)cc2sccc21`, > 10 µM (inactive).
Consider `CCn1c(C(=O)NCc2cc(OC)c(OC)c(OC)c2)cc2ccsc21`, for which the IC50 was > 10 µM (inactive).
Consider `COc1ccc(CCNC(=O)c2cc3sccc3n2C)cc1OC`, for which the IC50 is > 10 µM (inactive).
The value for `CCOc1ccc(CCNC(=O)CCOc2cc(C)ccc2C)cc1OCC` was > 10 µM (inactive).
With `CCOc1ccc(CCNC(=O)c2cc3ccsc3n2CC)cc1OC`, the IC50 is > 10 µM (inactive).
As to `COc1ccc(CCNC(=O)c2cc(-c3ccccc3)c(N3CCOCC3)s2)cc1OC`, the IC50 is > 10 µM (inactive).
Consider `COc1ccc(CNC(=O)c2cc3ccsc3n2C)cc1OC`, for which the IC50 was > 10 µM (inactive).
On to `CCOc1ccc(CCNC(=O)c2cc3ccsc3n2C)cc1OC`, for which the IC50 was > 10 µM (inactive).
With `CCOc1cc(CCNC(=O)c2ccc(N3CCOCC3)s2)ccc1OC` the figure was > 10 µM (inactive); with `CCOc1cc(CCNC(=O)COc2cc(=O)n(C)c3ccccc23)ccc1OC`, > 10 µM (inactive); with `CCOc1ccc(CCNC(=O)COc2cc(=O)n(C)c3ccccc23)cc1OCC`, > 10 µM (inactive).
In the case of `CCOc1cc(CCNC(=O)c2cc(-c3ccccc3)c(N3CCOCC3)s2)ccc1OC`, the IC50 is > 10 µM (inactive).
As to `CCn1c(C(=O)NCc2cc(OC)c(OC)c(OC)c2)cc2sccc21`, the IC50 is > 10 µM (inactive).
Consider `COc1ccc(CCNC(=O)c2cc3sc(Cl)cc3n2C)cc1OC`, for which the IC50 is > 10 µM (inactive).
With `CCOc1ccc(CCNC(=O)COC(=O)c2cc(OC)c(OC)c(OC)c2)cc1OCC` the figure was > 10 µM (inactive).
With `CCOc1ccc(CCNC(=O)c2cc3ccsc3n2CC)cc1OCC` the figure was > 10 µM (inactive); with `COc1ccc(CNC(=O)c2cc(-c3ccccc3)c(N3CCOCC3)s2)cc1OC`, > 10 µM (inactive); with `CCOc1ccc(CCNC(=O)CCC(=O)N2CCOc3ccccc32)cc1OCC`, > 10 µM (inactive).
In the case of `COc1cc(CNC(=O)CSc2cc(=O)n(C)c3ccccc23)cc(OC)c1OC`, the IC50 is > 10 µM (inactive).
With `O=C(NCCc1ccc2c(c1)OCO2)c1cc(-c2ccccc2)c(N2CCOCC2)s1` the figure was > 10 µM (inactive); with `CCOc1ccc(CCNC(=O)CCC(=O)N2CCSc3ccccc32)cc1OCC`, > 10 µM (inactive); with `COc1ccc(CCNC(=O)CSc2cc(=O)n(C)c3ccccc23)cc1OC`, > 10 µM (inactive).
`CCn1c(C(=O)Nc2ccc(OC)c(OC)c2)cc2sccc21`: the IC50 is > 10 µM (inactive).
Consider `CCn1c(C(=O)NCc2ccc(OC)c(OC)c2)cc2ccsc21`, for which the IC50 is > 10 µM (inactive).
Take `CCOc1ccc(CCNC(=O)COC(=O)c2cc(OC)cc(OC)c2)cc1OCC`: the IC50 was > 10 µM (inactive).
The value for `CCOc1ccc(CCNC(=O)c2cc(-c3ccccc3)c(N3CCOCC3)s2)cc1OCC` was > 10 µM (inactive); that for `Cn1c(C(=O)Nc2ccc3c(c2)OCO3)cc2ccsc21` was > 10 µM (inactive); that for `CCOc1cc(CCNC(=O)c2cc3sccc3n2CC)ccc1OC` was > 10 µM (inactive).
For the compound `COc1ccc(CNC(=O)c2ccc(N3CCOCC3)s2)cc1OC`, the IC50 is > 10 µM (inactive).
With `CCOc1ccc(CCNC(=O)CCc2nnc3ccc(N4CCCC4)nn23)cc1OCC` the figure was > 10 µM (inactive); with `CCOc1ccc(CCNC(=O)c2ccc(N3CCOCC3)s2)cc1OCC`, > 10 µM (inactive).
`Cn1c(C(=O)NCc2ccc3c(c2)OCO3)cc2ccsc21`: the IC50 was > 10 µM (inactive).
Consider `COc1ccc(CCNC(=O)Cn2cccc2C(=O)c2ccccc2C)cc1OC`, for which the IC50 was > 10 µM (inactive).
With `CCOc1cc(CCNC(=O)c2cc3ccccc3n2C)ccc1OC`, the IC50 is > 10 µM (inactive).
With `CCn1c(C(=O)Nc2ccc3c(c2)OCO3)cc2ccsc21` the figure was > 10 µM (inactive); with `COc1ccc(CCNC(=O)COC(=O)c2cc(OC)c(OC)cc2OC)cc1OC`, > 10 µM (inactive); with `CCOc1ccc(CCNC(=O)c2cc3ccsc3n2C)cc1OCC`, > 10 µM (inactive).
Regarding `O=C(NCCc1ccc2c(c1)OCO2)c1cc2sccc2[nH]1`, the IC50 is > 10 µM (inactive).
In the case of `CCOc1ccc(CCNC(=O)c2cc3sccc3n2CC)cc1OC`, the IC50 was > 10 µM (inactive).
As to `CCOc1ccc(CCNC(=O)c2cc(-c3ccccc3)c(N3CCOCC3)s2)cc1OC`, the IC50 was > 10 µM (inactive).
For the compound `COc1ccc(CNC(=O)CSc2cc(=O)n(C)c3ccccc23)cc1OC`, the IC50 is > 10 µM (inactive).
With `CCOc1ccc(CCNC(=O)CSc2cc(=O)n(C)c3ccccc23)cc1OCC` the figure was > 10 µM (inactive); with `Cn1c(=O)cc(SCC(=O)NCCc2ccc3c(c2)OCO3)c2ccccc21`, > 10 µM (inactive).
For `CCOc1ccc(CCNC(=O)Cn2cccc2C(=O)c2ccccc2)cc1OCC`, the IC50 is > 10 µM (inactive).

Source of the values: PubChem BioAssay AID504422 (Sanford-Burnham Center for Chemical Genomics, 2011).
